Measurements from US5804164A, “Water-soluble lipophilic contrast agents” (Research Corporation Technologies, Inc., priority 1996, dated 1998).

Experiment: Relaxivity of dialyzed liposomal Gd(BME-DTTA)
Format: physicochemical
Conditions: dialyzed against saline pH 7.4 with HEPES and Chelex-100
Procedure: In this comparative example, the gadolinium complex of N^3,N^6 -bis(2'-myristoyloxyethyl)-1,8-dioxo-triethylenetetraamine-N,N,N',N'-tetraacetic acid [Gd(BME-DTTA)] was prepared and used for cardiac tissue imaging. Specifically, Gd(BME-DTTA) was synthesized and incorporated into liposomes using the procedure described in the Elgavish et al. article entitled "Fatty-acyl iminopolycarboxylates; lipophilic bifunctional contrast agents for NMR imaging", Magn. Reson. Med. 1991; Vol 22; pp. 57-67.
The liposomal Gd(BME-DTTA) was dialyzed at 4° C. for 24 hours against a saline solution (pH 7.4) that contained 0.9 weight % NaCl, 20 mmol/L HEPES, and 0.5 weight % Chelex-100 to remove any weakly bound Gd ions. […] (mmol/L)^-1.

gadolinium complex of N^3,N^6 -bis(2'-myristoyloxyethyl)-1,8-dioxo-triethylenetetraamine-N,N,N',N'-tetraacetic acid [Gd(BME-DTTA)]
relaxivity: 27.1±0.3 s^-1. (mmol/L)^-1
